The values below come from article PMC6259751, “Investigating Spectrum of Biological Activity of 4- and 5-Chloro-2-hydroxy-N-[2-(arylamino)-1-alkyl-2-oxoethyl]benzamides” (Molecules, 2011).

The MIC is the smallest concentration in the dilution series that meets the test's criterion for growth inhibition.

Data set [1] has as its system methicilin resistant Staphylococcus aureus H 5996/08. The data set is described as follows: In vitro antibacterial susceptibility testing (broth microdilution).
The test system of data set [2] is Enterococcus sp. J 14365/08. Described as above. The settings on record: read-out: MIC EF.
In data set [3] the test system is Staphylococcus epidermidis H 6966/08. The data set is described as above.
Data set [4] has as its system Staphylococcus aureus CCM 4516/08. The description is as above. The following applies: read-out: MIC SA.
For data set [5], the system named is Mycobacterium kansasii MK CNCTC My 235/80. The experiment in a line: In vitro antimycobacterial evaluation. The following applies: IC90 value. In kind it is cell-based.
Data set [6] relates to Mycobacterium avium MA CNCTC My 330/88. The data set is described as follows: In vitro antimycobacterial evaluation. The class given is cell-based. The following applies: IC90 value.
For data set [7], the system named is Mycobacterium tuberculosis MTB CNCTC My 331/88. The experiment in a line: In vitro antimycobacterial evaluation. The class given is cell-based. The following applies: IC90 value.
For data set [8], the system named is Trichophyton mentagrophytes 445. The experiment in a line: In vitro antifungal susceptibility testing (broth microdilution). In kind it is cell-based. The settings on record: M38-A for moulds, IC50 value, read-out: MIC TM. For orientation: In broth dilution the organism is exposed to a series of concentrations in liquid medium.
The next data set has as its system Candida tropicalis 156. The description is as above. The following applies: M27-A2 for yeasts, IC80 value. The class given is cell-based.
The nature of data set [9]: Lipophilicity determination by RP-HPLC (capacity factor k / log k). The class given is physicochemical. The settings on record: C18 column, MeOH 70% / H2O 30%, isocratic. The procedure: Hydrophobicities (log P/Clog P) of compounds 8 and 9 were calculated using two commercially available programs (ChemOffice Ultra 10.0 and ACD/LogP) and measured by means of RP-HPLC determination of capacity factors k with subsequent calculation of log k. The procedure was performed under isocratic conditions with methanol as an organic modifier in the mobile phase using an end-capped non-polar C18 stationary RP column. The results are shown in Table 1 and illustrated in Figure 1.
A Waters Alliance 2695 XE HPLC separation module and a Waters Photodiode Array Detector 2996 (Waters Corp., Milford, MA, USA) were used. A Symmetry® C18 5 μm, 4.6 × 250 mm, Part No. WAT054275 (Waters Corp., Milford, MA, USA) chromatographic column was used. The HPLC separation process was monitored by Empower™ 2 Chromatography Data Software, Waters 2009 (Waters Corp., Milford, MA, USA). A mixture of MeOH p.a. (70%) and H2O-HPLC – Mili-Q Grade (30%) was used as a mobile phase. The total flow of the column was 1.0 mL/min, injection volume, 30 μL, column temperature, 30 °C and sample temperature, 10 °C. The detection wavelength of 210 nm was chosen. The KI methanolic solution was used for the dead time (tD) determination. Retention times (tR) were measured in minutes. The capacity factors k were calculated using the Empower™ 2 Chromatography Data Software according to formula k = (tR - tD)/tD, where tR is the retention time of the solute, whereas tD denotes the dead time obtained using an unretained analyte. Log k, calculated from the capacity factor k, is used as the lipophilicity index converted to log P scale.

The mark [10] stands for this setting: H6966/08, 24 h, read-out: MIC SE.
The mark [11] stands for this setting: H6966/08, 48 h, read-out: MIC SE.

Converted amounts (≈) assume the structure as drawn. Where two headings read alike, the source gives them in different places. Where only a bound is given, the exact number is not on record here.

Take `CC1(C)S[C@@H]2[C@H](NC(=O)Cc3ccccc3)C(=O)N2[C@H]1C(=O)O` [PEN, penicillin G, reference compound]: the MIC in data set [1] (MRSA, 24 h, read-out: MIC MRSA) stood at 125 µM (≈ 41.8 µg/mL); in data set [1] (MRSA, 48 h, read-out: MIC MRSA) it was 125 µM (≈ 41.8 µg/mL); in data set [2] (SP.J14365/08, 24 h), 7.81 µM (≈ 2.61 µg/mL); in data set [2] (SP.J14365/08, 48 h) it was 15.6 µM (≈ 5.22 µg/mL); in [3] (setting [10]) it was 31.6 µM (≈ 10.6 µg/mL); in data set [3] (setting [11]) it was 125 µM (≈ 41.8 µg/mL). For the same molecule, the MIC came to 0.24 µM (≈ 0.0803 µg/mL) in [4] (CCM4516, 24 h) and 0.24 µM (≈ 0.0803 µg/mL) in [4] (CCM4516, 48 h).

As for `C[C@@H](NC(=O)c1cc(Cl)ccc1O)C(=O)Nc1ccc(Cl)cc1` [8h], the MIC in data set [5] (14h) was found to be 125 µM (≈ 44.2 µg/mL); in data set [5] (21h) it was 250 µM (≈ 88.3 µg/mL); in data set [6] (14h) it was 125 µM (≈ 44.2 µg/mL); in data set [6] (21h), 125 µM (≈ 44.2 µg/mL); in data set [7] (14h) it was 8 µM (≈ 2.83 µg/mL); in data set [7] (21h), 16 µM (≈ 5.65 µg/mL). Moreover, the MIC was above 500 µM in [1] (MRSA, 24 h, read-out: MIC MRSA); above 500 µM in data set [1] (MRSA, 48 h, read-out: MIC MRSA); above 500 µM in data set [2] (SP.J14365/08, 24 h); above 500 µM in data set [2] (SP.J14365/08, 48 h); above 125 µM in [8] (72h); above 125 µM in data set [8] (120h). The minimal inhibitory concentration (MIC) in data set [3] (setting [10]) was above 500 µM; in data set [3] (setting [11]), above 500 µM; in the data set with Candida tropicalis 156 (24h) it was above 125 µM; in the data set on Candida tropicalis 156 (48h) it was above 125 µM; in [4] (CCM4516, 24 h), above 500 µM; in data set [4] (CCM4516, 48 h) it was above 500 µM. Also, the log k in [9] stood at 0.4308.

For `C[C@@H](NC(=O)c1ccc(Cl)cc1O)C(=O)Nc1ccc(Cl)cc1` [9b, 4-Chloro-N-{(1R)-2-[(4-chlorophenyl)-amino]-1-methyl-2-oxoethyl}-2-hydroxy benzamide], the MIC was determined as 125 µM (≈ 44.2 µg/mL) in data set [5] (14h); 125 µM (≈ 44.2 µg/mL) in [5] (21h); 125 µM (≈ 44.2 µg/mL) in data set [6] (14h); 125 µM (≈ 44.2 µg/mL) in data set [6] (21h); 32 µM (≈ 11.3 µg/mL) in data set [7] (14h); 62.5 µM (≈ 22.1 µg/mL) in data set [7] (21h). The MIC in [1] (MRSA, 24 h, read-out: MIC MRSA) is 7.81 µM (≈ 2.76 µg/mL); in [1] (MRSA, 48 h, read-out: MIC MRSA), 7.81 µM (≈ 2.76 µg/mL); in data set [1] (read-out: activity against methicillin-resistant Staphylococcus aureus (MIC)), 7.81 µM (≈ 2.76 µg/mL); in data set [2] (SP.J14365/08, 24 h), 500 µM (≈ 177 µg/mL); in data set [2] (SP.J14365/08, 48 h), 500 µM (≈ 177 µg/mL); in [8] (72h) it was 250 µM (≈ 88.3 µg/mL). In addition, the MIC in data set [8] (120h) is 250 µM (≈ 88.3 µg/mL); in data set [3] (setting [10]) it was 1.95 µM (≈ 0.689 µg/mL); in data set [3] (setting [11]) it was 1.95 µM (≈ 0.689 µg/mL); in [3] (H6966/08, read-out: activity against S. epidermidis (MIC)), 1.95 µM (≈ 0.689 µg/mL); in the data set with Candida tropicalis 156 (24h), 250 µM (≈ 88.3 µg/mL); against Candida tropicalis 156 (48h), 250 µM (≈ 88.3 µg/mL). Further, the MIC amounted to 7.81 µM (≈ 2.76 µg/mL) in data set [4] (CCM4516, 24 h) and 7.81 µM (≈ 2.76 µg/mL) in data set [4] (CCM4516, 48 h). The log k in data set [9] is recorded as 0.4921.

As for `O=C(CNC(=O)c1cc(Cl)ccc1O)Nc1ccc(Cl)c(Cl)c1` [8m], the minimal inhibitory concentration (MIC) worked out at 125 µM (≈ 46.7 µg/mL) in data set [5] (14h); 500 µM (≈ 187 µg/mL) in [5] (21h); 62.5 µM (≈ 23.4 µg/mL) in data set [6] (14h); 500 µM (≈ 187 µg/mL) in [6] (21h); 125 µM (≈ 46.7 µg/mL) in [7] (14h); 500 µM (≈ 187 µg/mL) in [7] (21h). Further, the MIC in [1] (MRSA, 24 h, read-out: MIC MRSA) was above 125 µM; in [1] (MRSA, 48 h, read-out: MIC MRSA), above 125 µM; in data set [2] (SP.J14365/08, 24 h), above 125 µM; in [2] (SP.J14365/08, 48 h), above 125 µM; in data set [8] (72h), above 125 µM; in data set [8] (120h), above 125 µM. The MIC in data set [3] (setting [10]) was above 125 µM; in [3] (setting [11]), above 125 µM; with Candida tropicalis 156 (24h), above 125 µM; with Candida tropicalis 156 (48h) it was above 125 µM; in data set [4] (CCM4516, 24 h), above 125 µM; in data set [4] (CCM4516, 48 h), above 125 µM. The same molecule yielded a log k in [9] of 0.4971.

`OC(Cn1cncn1)(Cn1cncn1)c1ccc(F)cc1F` [FLU, fluconazole, reference compound]: the MIC in data set [8] (72h) is 1.95 µM (≈ 0.597 µg/mL); in data set [8] (120h), 3.91 µM (≈ 1.2 µg/mL); against Candida tropicalis 156 (24h) it was 0.12 µM (≈ 0.0368 µg/mL); against Candida tropicalis 156 (48h), above 125 µM.

For `O=C(O)c1cn(C2CC2)c2cc(N3CCNCC3)c(F)cc2c1=O` [CPF, ciprofloxacin, reference compound], the minimal inhibitory concentration (MIC) stood at 500 µM (≈ 166 µg/mL) in [1] (MRSA, 24 h, read-out: MIC MRSA); 500 µM (≈ 166 µg/mL) in data set [1] (MRSA, 48 h, read-out: MIC MRSA); 250 µM (≈ 82.8 µg/mL) in data set [3] (setting [10]); 250 µM (≈ 82.8 µg/mL) in data set [3] (setting [11]).

With `NNC(=O)c1ccncc1` [INH, isoniazid, reference compound], the MIC in [5] (14h) was above 250 µM; in [5] (21h), above 250 µM; in data set [6] (14h) it was above 250 µM; in [6] (21h) it was above 250 µM; in data set [7] (14h), 0.5 µM (≈ 0.0686 µg/mL); in [7] (21h) it was 0.5 µM (≈ 0.0686 µg/mL).
